Like-named read-outs stand apart in the source and are kept apart here.
Key:
[1] = system: tobacco budworm (Heliothis virescens [F.]) larvae; conditions: cited from earlier work; for effect on growth: at 2.5 μmoles/g diet; for effective dosage required to reduce by 50% the growth of larvae: larvae fed an artificial diet
[2] = system: tobacco budworm larval growth; conditions: in vivo; cited from earlier work
[3] = as recommended by manufacturers; pest not stated; cited from earlier work
[4] = system: roaches; conditions: as recommended by manufacturers; cited from earlier work
[5] = system: termites; assay: Termite lab colony bait matrix test (time to 100% mortality); assay type: in vivo, Formosan subterranean termite
Procedure: Gossypol acetic acid complex, which is a commercially available pure chemical, is dissolved in 1 ml acetone (#9006-03; J. T. Baker, Phillipsburg, NJ) using a sterile container. In the pure form as gossypol acetic acid complex and at concentrations of 5 ppm, gossypol is effective when mixed with a chitin synthesis inhibitor of the benzophenyl urea family or microbes such as fungi, bacteria, or viruses, taking a mean time to kill the lab test of four months. At concentrations greater than 500 ppm, without the addition of any other chemical, gossypol acetic acid complex as an insecticide can kill the lab test colony after a mean duration of one month.
Gossypol-acetic acid complex obtained from USDA-ARS-SRCC, New Orleans, La., crude cotton seed oil [8ETX(5)], from a commercial oil mill, and a commercial cotton meal [6MTN 925 CSM] were separately incorporated into a bait matrix as described in U.S. patent application Ser. No. 09/294,499 filed Apr. 20, 1999, at concentrations of 50, 25, and 12.5 ppm respectively. […] A total of 40 mg of the gossypol acetic acid complex, 250 mg of the crude cotton seed oil, and 900 mg of the cotton seed meal were individually weighed using a Mettler balance (model PB303; Fisher Scientific, Pittsburgh, Pa.). The gossypol-acetic acid complex was placed into a 50 ml sterile screw cap conical tube (#62.547.004; Sarstedt, Newton, N.C.) and dissolved with 1 ml acetone (#9006-03; J. T. Baker, Phillipsburg, N.J.).
Under a laminar flow hood, the gossypol acetone solution was mixed with 40 ml of sterile nutritional supplement containing 150 ppm of chitin inhibitors (prepared as reported by Rojas, M. G. and Morales-Ramos, J. A., Apr. 2001, “Bait matrix for delivery of chitin synthesis inhibitors to the Formosan subterranean termite [Isoptera: Rhinotermitidae],” J. Econ. Entomol. 94(2):506-510). The tube was tightly closed with a screw cap and manually shaken for 30 seconds. The mixture was added to 100 g of sterile cellulose as reported by Rojas and Morales-Ramos (2001) supra. The cotton seed oil was mixed with 300 ml of supplement and mixed with the sterile cellulose. The cotton seed meal was mixed and homogenized with the sterile cellulose, and then the 300 ml nutritional supplement was added. Each mixture was manually homogenized using a stainless steel spatula.
The mixtures were prepared as reported above for gossypol-chitin inhibitors, but without the addition of the chitin inhibitors. The fungal spores (400 mg) (Bio-Blast, EcoScience, Orlando, Fla.) were homogenized with the sterile cellulose, then the 300 ml of supplement gossypol-containing solution was added.
To encase the bait matrix, tubes made of fibrous casing material (#124B; L. E. M. Products, Inc., Miamitown, Ohio) were cut into 150 mm long portions as reported by Rojas and Morales-Ramos (2001) supra. Fifty grams of bait matrix containing a mixture of a single gossypol source and a single chitin synthesis inhibitor, or single gossypol source and fungal spores, were compacted into one end of the inlet tube, at which point the open end of the inlet tube was closed with a rubber band. The bait casing was placed inside of the foraging box adjacent to a 10 g piece of pine wood, taking care that they were partially covered with the sand. […]
All the experimental boxes were maintained under dark at 29±2° C., and 75±2% relative humidity. […] The time to reach 100% mortality was measured and recorded. […]

[6] = system: tobacco budworm neonate larvae; conditions: nine days, cited from earlier work
[7] = system: bollworms; conditions: 0.15% gossypol in an artificial diet; regular diet 54.5%; cited from earlier work
[8] = system: amylase; conditions: cotton leafworm (S. littoralis); cited from earlier work
[9] = system: Spiny bollworm (Earias insulana Boisduval); conditions: cited from earlier work
[10] = system: cotton leafworm (Spodoptera littoralis [Boisduval]); conditions: cited from earlier work
[11] = system: invertase; conditions: cotton leafworm (S. littoralis); cited from earlier work
[12] = system: tobacco budworms; conditions: cited from earlier work
[13] = system: protease; conditions: cotton leafworm (S. littoralis); cited from earlier work
[14] = system: silverleaf whitefly (Bemisia argentifolii Bellows and Perring); conditions: in vivo; cited from earlier work
[15] = system: ants; conditions: as recommended by manufacturers; cited from earlier work
[16] = system: subterranean termites; conditions: as recommended by manufacturers; cited from earlier work

## COc1c(O)c(C=O)c2c(c1C(C)C)C(=O)C(C)=CC2=O [Hemigossypolone-6-methyl ether]
[1]
  effect on growth: no effect on growth

## C=C1CC[C@H]2O[C@]2(C)CC[C@@H]2[C@@H]1CC2(C)C [caryophyllene oxide]
[2]
  interaction with gossypol in retarding larval growth: interacts synergistically

## O=C(NC(=O)c1c(F)cccc1F)Nc1cc(Cl)c(Oc2ncc(C(F)(F)F)cc2Cl)c(Cl)c1 [chlorfuazuron]
[3]
  lethal amount: about 0.5%

## O=C(NC(=O)c1c(F)cccc1F)Nc1ccc(Cl)cc1 [diflubenzuron]
[3]
  lethal amount: about 0.250%

## N#Cc1nn(-c2c(Cl)cc(C(F)(F)F)cc2Cl)c(N)c1[S+]([O-])C(F)(F)F (stereo not drawn) [fipronil]
[4]
  lethal amount: about 0.05%

## CC(=O)O.Cc1cc2c(C(C)C)c(O)c(O)c(C=O)c2c(O)c1-c1c(C)cc2c(C(C)C)c(O)c(O)c(C=O)c2c1O [gossypol acetic acid complex, Gossypol acetic acid complex]
[5]; 5 ppm, mixed with a chitin synthesis inhibitor of the benzophenyl urea family or microbes
  mean time to kill the lab test: four
[5]; 500 ppm, not mixed with any other chemicals, fungi, or bacteria
  time to mortality of a 1000-worker colony: about 2.5 weeks
[5]; concentrations greater than 500 ppm, without any other chemical
  mean duration to kill the lab test colony: one
[5]; preliminary results, doses from 5 to 500 ppm, mortality in about two months, no signs of repellency
  dose sufficient to weaken the termites and allow other chemicals or microorganisms to induce mortality: 100 ppm

## Cc1cc2c(C(C)C)c(O)c(O)c(C=O)c2c(O)c1-c1c(C)cc2c(C(C)C)c(O)c(O)c(C=O)c2c1O [gossypol]
[6]; 0.02% gossypol in artificial diet
  larval size relative to control: 98%
[6]; 0.06% gossypol in the diet
  larval weight relative to controls: 63%
[6]; 0.2% gossypol in the diet
  larval weight relative to controls: 13%
[7]
  food utilization: 42.5%
[8]
  amylase activity: inhibits
[9]; bolls containing 0.58% gossypol
  pupated: 45%
[9]; bolls containing 2.34% gossypol
  pupated: 9%
[1]
  effective dosage required to reduce by 50% the growth of larvae: 0.8 μmoles/g diet
[10]; 0.5% gossypol in the diet, after 10 days
  mortality: ~70%
[10]; 0.5% gossypol in the diet
  larvae eventually pupated: 0.3%
[10]; 1.0% gossypol in the diet
  feeding: strongly suppressed feeding
[11]
  invertase activity: does not affect
[12]; gossypol 0.30%, 5- and 8-day-old larvae
  food consumption: impaired
[12]; gossypol at the 0.15% level
  food utilization: did not measurably affect food utilization
[13]
  protease activity: inhibits
[5]; gossypol with the chitin inhibitor in bait matrix, control boxes (no gossypol) still alive
  time until experimental colonies were dead: about two
[14]
  honeydew production: did not affect
  mortality: did not affect

## COc1c(O)c(C=O)c2c(c1C(C)C)C(=O)C1(C)CC=C(C)C(CC=C(C)C)C1C2=O (stereo not drawn) [heliocide B1]
[1]
  effective dosage required to reduce by 50% the growth of larvae: 4.6 μmoles/g diet

## COc1c(O)c(C=O)c2c(c1C(C)C)C(=O)C1(C)CC=C(CCC=C(C)C)CC1C2=O (stereo not drawn) [heliocide B2]
[1]
  effect on growth: no effect on growth

## COc1c(O)c(C=O)c2c(c1C(C)C)C(=O)C1(C)CC(CCC=C(C)C)=CCC1C2=O (stereo not drawn) [heliocide B3]
[1]
  effect on growth: no effect on growth

## CC(C)=CCC1C(C)=CCC2(C)C(=O)c3c(c(C=O)c(O)c(O)c3C(C)C)C(=O)C12 (stereo not drawn) [heliocide H1]
[1]
  effective dosage required to reduce by 50% the growth of larvae: 2.5 μmoles/g diet

## CC(C)=CCCC1=CC[C@]2(C)C(=O)c3c(c(C=O)c(O)c(O)c3C(C)C)C(=O)[C@@H]2C1 [heliocide H2]
[1]
  effective dosage required to reduce by 50% the growth of larvae: 11.2 μmoles/g diet

## CC(C)=CCCC1=CC[C@H]2C(=O)c3c(C=O)c(O)c(O)c(C(C)C)c3C(=O)[C@@]2(C)C1 [heliocide H3]
[1]
  effective dosage required to reduce by 50% the growth of larvae: 3.9 μmoles/g diet

## CC1=CC(=O)c2c(C=O)c(O)c(O)c(C(C)C)c2C1=O [hemigossypolone]
[1]
  effective dosage required to reduce by 50% the growth of larvae: 10.5 μmoles/g diet

## O=C(NC(=O)c1c(F)cccc1F)Nc1cc(Cl)c(OC(F)(F)C(F)F)c(Cl)c1 [hexaflumuron]
[3]
  lethal amount: about 0.5%

## CC1(C)CNC(=NN=C(/C=C/c2ccc(C(F)(F)F)cc2)/C=C/c2ccc(C(F)(F)F)cc2)NC1 [hydramethylnon]
[15]
  lethal amount: about 1.0%
[16]
  lethal amount: about 0.030%

## O=[N+]([O-])NC1=NCCN1Cc1ccc(Cl)nc1 [imidacloprid]
[4]
  lethal amount: about 2.15%

## caryophyllene
[2]
  interaction with gossypol in retarding larval growth: does not act synergistically

Source: patent publication US6773727B1, “Use of gossypol and related terpenes for control of urban and agricultural pests” (The United States of America as represented by the …, priority 2001, dated 2004)
